“Also recorded” adds a separate entry of the source. Where a name gives a salt, the structure may show the parent alone. Read-outs that look alike come from different tables or passages of the source.
What was measured:
human 5-HT2A receptor = molecular target: T1, human 5-HT2A receptor (Homo sapiens, UniProt P28223); assay: 5-HT2A receptor activation assessment (IP1 accumulation, NIH/3T3 cells); type: cell-based; conditions: for 5-HT2A receptor activation, result in words: FIG. 10 / FIG. 11
T1 construct: expressed in transfected cells; host or cells: NIH/3T3 cells stably expressing the receptor
T1 sequence (P28223 whole entry): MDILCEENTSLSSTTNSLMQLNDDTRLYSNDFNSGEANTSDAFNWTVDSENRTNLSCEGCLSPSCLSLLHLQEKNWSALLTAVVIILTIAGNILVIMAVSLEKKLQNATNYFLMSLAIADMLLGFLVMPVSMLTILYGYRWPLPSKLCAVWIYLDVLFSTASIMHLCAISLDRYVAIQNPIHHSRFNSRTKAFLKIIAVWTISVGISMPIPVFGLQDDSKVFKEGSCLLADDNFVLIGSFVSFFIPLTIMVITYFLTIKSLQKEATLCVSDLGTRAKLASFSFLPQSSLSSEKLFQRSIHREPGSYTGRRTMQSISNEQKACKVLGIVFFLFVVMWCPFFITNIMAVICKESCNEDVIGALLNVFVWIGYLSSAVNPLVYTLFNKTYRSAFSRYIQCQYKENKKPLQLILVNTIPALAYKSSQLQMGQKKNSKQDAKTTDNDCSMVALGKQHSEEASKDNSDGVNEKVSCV
Procedure: 5-HT2A receptor activation assessment. Activation of the 5-HT2A receptor was assessed by measuring the accumulation of inositol monophosphate 1 (IP1) using the Cisbio IP-One Gq Kit (Cisbio Bioassays SAS, Codolet Cedex, France) according to the manufacturer's protocol. In brief, NIH/3T3 cells stably expressing the human 5-HT2A receptor were seeded at a density of 2,500 cells per well in a 384-well plate in Opti-MEM™ I medium (Gibco, ThermoFisher, Life Technologies Europe B.V., Zug, Switzerland). Then, test compounds were added, and the plate was incubated for 90 minutes at 37° C., followed by 60 minutes incubation with Anti-IP1-Cryptate and IP1-d2 at room temperature. Stimulated IP-1 formation was determined by Homogeneous Time-Resolved Fluorescence (HTRF) measurement on a BioTek Synergy H1 Multimode Reader (Agilent Technologies (Schweiz) AG, Basel, Switzerland) and EC50 values were derived from the concentration-response curves using nonlinear regression.

[1] = molecular target: T2, human serotonin (5-HT) transporter (hSERT) (Homo sapiens, UniProt P31645); assay: Serotonin uptake transport inhibition ([3H]5-HT uptake in hSERT-transfected HEK 293 cells); type: cell-based; conditions: screening at 1 μM and 10 μM (n=3), FIG. 9
T2 construct: expressed in transfected cells; host or cells: HEK 293 cells (Invitrogen), stably transfected
T2 sequence (P31645 whole entry): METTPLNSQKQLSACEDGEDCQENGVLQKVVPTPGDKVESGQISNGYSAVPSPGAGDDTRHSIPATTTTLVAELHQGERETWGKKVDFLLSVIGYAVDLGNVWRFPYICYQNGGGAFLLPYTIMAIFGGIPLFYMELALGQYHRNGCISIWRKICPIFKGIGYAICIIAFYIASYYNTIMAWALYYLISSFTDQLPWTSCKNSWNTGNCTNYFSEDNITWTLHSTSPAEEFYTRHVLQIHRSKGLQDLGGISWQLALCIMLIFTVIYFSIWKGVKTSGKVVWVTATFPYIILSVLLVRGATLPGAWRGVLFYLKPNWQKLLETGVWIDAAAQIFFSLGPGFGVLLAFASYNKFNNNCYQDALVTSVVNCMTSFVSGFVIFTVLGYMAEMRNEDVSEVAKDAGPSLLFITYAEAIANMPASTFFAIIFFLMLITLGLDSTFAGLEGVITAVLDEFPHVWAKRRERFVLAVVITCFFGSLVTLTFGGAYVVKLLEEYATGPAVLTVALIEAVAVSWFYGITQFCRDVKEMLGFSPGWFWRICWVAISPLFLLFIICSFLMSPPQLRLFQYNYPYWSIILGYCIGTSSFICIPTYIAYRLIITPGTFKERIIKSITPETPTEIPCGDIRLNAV
Procedure: Serotonin uptake transport inhibition. […] Briefly, cells were cultured in Dulbecco's modified Eagle's medium (DMEM; Gibco, Life Technologies, Zug, Switzerland) with 10% fetal bovine serum (Gibco) and 250 mg/mL Geneticin (Gibco) to 70-90% confluence, detached, and then resuspended (3×10^6 cells/mL) in Krebs-Ringer Bicarbonate Buffer (Sigma-Aldrich, Buchs, Switzerland). The cell suspension (100 μL) was incubated with 25 μL buffer containing the test compounds, vehicle control, or 10 μM fluoxetine (SERT-specific inhibitor) for 10 minutes in a round bottom 96-well plate at room temperature by shaking at 450 rotations per minute on a rotary shaker. To initiate uptake transport, 50 μL of [^3H] […] Thereafter, 100 μL of the cell suspension was transferred into 500 μL microcentrifuge tubes that contained 50 μL of 3 M KOH and 200 μL silicon oil (1:1 mixture of silicon oil types AR 20 and AR 200; Sigma-Aldrich). The tubes were centrifuged for 3 minutes at 16,550 g to transport the cells through the silicone oil into the KOH. The tubes were frozen in liquid nitrogen and the cell pellet was then cut into 6 mL scintillation vials (PerkinElmer, Schwerzenbach, Switzerland) that contained 0.5 mL lysis buffer (0.05 M TRIS-HCl, 50 mM NaCl, 5 mM EDTA, and 1% NP-40 in water). The samples were shaken for 1 hour before the addition of 5 mL scintillation liquid (Ultimagold, Perkin Elmer). Serotonin uptake was quantified by liquid scintillation counting on a Packard Tri-Carb Liquid Scintillation Counter 1900 TR. Non-specific uptake in the presence of fluoxetine was subtracted from the total counts.

[2] = molecular target: T2, human serotonin (5-HT) transporter (hSERT); conditions: read-out: IC50, SERT inhibition (Simmler et al., 2013); literature value in this assay; cited from earlier work
[3] = humans; Trachsel et al., 2013; cited from earlier work
[4] = NIH/3T3 cells expressing human 5-HT2A, FIG. 11, read-out: EC50, 5-HT2A receptor activation (IP1 formation)
[5] = values for hydrochloride salts, read-out: IC50 values at the 5-HT2A receptor

With “1-(Indol-3-yl) but-3-en-2-amine hemifumarate [DH-α-ET]” the “efficacy at the 5-HT2A receptor, percentage of the maximal 5-HT response” value (human 5-HT2A receptor; at 10 μM) was roughly 50%, the IC50 ([1]; read-out: IC50, inhibition of 5-HT uptake (SERT)) was less than 1000 nM and the “IC50, inhibition of 5-HT uptake (SERT)” value [1] was “sub-micromolar”.

For `C=CC(Cc1ccc2c(c1)OCO2)NC.Cl` (stereo not shown) [DH-MBDB, N-Methyl-1-(1,3-benzodioxol-5-yl) but-3-en-2-amine hydrochloride], the “5-HT2A receptor activation, result in words” value (from here on “5-HT2A receptor activation”) (human 5-HT2A receptor) was “weaker activation efficacy” and the IC50 [1] was 1000 to 10000 nM.

With `C#CC(N)Cc1cc(OC)c(Br)cc1OC.Cl` (stereo not shown) [DDH-4C-B, 1-(4-Bromo-2,5-dimethoxyphenyl)but-3-yn-2-amine hydrochloride] the “5-HT2A receptor activation” value (human 5-HT2A receptor) was “fully activated”, the EC50 (human 5-HT2A receptor; [4]) was 40.7 nM and the EC50 (human 5-HT2A receptor; [5]) was 40.7 nM.

In the case of `C=CC(N)Cc1cc(OC)c(Br)cc1OC.Cl` (stereo not shown) [DH-4C-B, 1-(4-Bromo-2,5-dimethoxyphenyl)but-3-en-2-amine hydrochloride], the “5-HT2A receptor activation” value (human 5-HT2A receptor; hydrochloride) is reported as “fully activated; also recorded: potent activity”, the EC50 (human 5-HT2A receptor; [4]) is reported as 22.1 nM and the EC50 (human 5-HT2A receptor; [5]) is reported as 22.1 nM. The IC50 [1] was greater than 10000 nM.

`C#CC(N)Cc1ccc2c(c1)OCO2` (stereo not shown) [DDH-BDB, 1-(1,3-Benzodioxol-5-yl)but-3-yn-2-amine hydrochloride] gave an IC50 [1] greater than 10000 nM.

For `CNC(C)Cc1ccc2c(c1)OCO2` (stereo not shown) [MDMA, 3,4-Methylenedioxymethamphetamine], the IC50 [2] is listed as roughly 1400 nM.

In the case of `CCC(N)Cc1cc(OC)c(Br)cc1OC` (stereo not shown) [4C-B], the “active dose range (mixed psychedelic-energizing)” value [3] is given as 50 to 80 mg.

With `C=CC(N)Cc1ccc2c(c1)OCO2.Cl` (stereo not shown) [DH-BDB, 1-(1,3-Benzodioxol-5-yl) but-3-en-2-amine hydrochloride] the “5-HT2A receptor activation” value (human 5-HT2A receptor) was “weaker activation efficacy” and the IC50 [1] was 1000 to 10000 nM.

Work on `C#CC(Cc1ccc2c(c1)OCO2)NC` (stereo not shown) [DDH-MBDB, N-Methyl-1-(1,3-benzodioxol-5-yl)but-3-yn-2-amine hydrochloride] yielded an IC50 [1] greater than 10000 nM.

With `C=C(c1ccc2c(c1)OCO2)C(C)NC.Cl` (stereo not shown) [BME-MDMA, 2-(1,3-Benzodioxol-5-yl)-3-(methylamino) butene hydrochloride] the “5-HT2A receptor activation” value (human 5-HT2A receptor) was “weaker activation efficacy”.
